Like-named read-outs stand apart in the source and are kept apart here.
How the values were obtained:
human MonoMac6 cells = details: cells pretreated; cited from earlier work
[1] = cited from earlier work
asthma patients = details: human, in vivo; cited from earlier work
[2] = in vivo; cited from earlier work
hTRPA1 = hTRPA1 (Homo sapiens, UniProt O75762); details: cited from earlier work; for inhibition of hTRPA1 activation by menthol and AITC: compound at 1 mM, menthol 1 mM, AITC 10 uM
[3] = system: Human respiratory syncytial virus (hRSV); details: 14 days prior to challenge and 3 days post challenge; cited from earlier work
mice [4] = details: cited from earlier work
guinea pigs [5] = details: cited from earlier work
human lung cancer A549 = details: in vitro and ex vivo; cited from earlier work
leukemia K562 cells = details: in vitro and ex vivo; cited from earlier work
rats [6] = details: oral, rat, cited from earlier work
rats [7] = assay: NOAEL, oral, rats; format: in vivo
Description: The NOAEL value for Polysorbate 20 taken orally in rats is greater than 2,500 mg/kg (body weight), the highest dose tested.

mice [8] = details: oral (species not given; mice); cited from earlier work
mice [9] = assay: NOAEL, oral, mice
guinea pigs [10] = details: pretreatment; cited from earlier work
[11] = 100 μM, in the presence of 2 mM N-acetyl cysteine; cited from earlier work
rats [12] = details: 50 mg/kg orally each day; smoke 1 hr/day for 56 days; cited from earlier work
TRPV1 = TRPV1 (Homo sapiens, UniProt Q8NER1); details: cited from earlier work
Sequence of TRPV1 (Q8NER1 whole entry, species assumed): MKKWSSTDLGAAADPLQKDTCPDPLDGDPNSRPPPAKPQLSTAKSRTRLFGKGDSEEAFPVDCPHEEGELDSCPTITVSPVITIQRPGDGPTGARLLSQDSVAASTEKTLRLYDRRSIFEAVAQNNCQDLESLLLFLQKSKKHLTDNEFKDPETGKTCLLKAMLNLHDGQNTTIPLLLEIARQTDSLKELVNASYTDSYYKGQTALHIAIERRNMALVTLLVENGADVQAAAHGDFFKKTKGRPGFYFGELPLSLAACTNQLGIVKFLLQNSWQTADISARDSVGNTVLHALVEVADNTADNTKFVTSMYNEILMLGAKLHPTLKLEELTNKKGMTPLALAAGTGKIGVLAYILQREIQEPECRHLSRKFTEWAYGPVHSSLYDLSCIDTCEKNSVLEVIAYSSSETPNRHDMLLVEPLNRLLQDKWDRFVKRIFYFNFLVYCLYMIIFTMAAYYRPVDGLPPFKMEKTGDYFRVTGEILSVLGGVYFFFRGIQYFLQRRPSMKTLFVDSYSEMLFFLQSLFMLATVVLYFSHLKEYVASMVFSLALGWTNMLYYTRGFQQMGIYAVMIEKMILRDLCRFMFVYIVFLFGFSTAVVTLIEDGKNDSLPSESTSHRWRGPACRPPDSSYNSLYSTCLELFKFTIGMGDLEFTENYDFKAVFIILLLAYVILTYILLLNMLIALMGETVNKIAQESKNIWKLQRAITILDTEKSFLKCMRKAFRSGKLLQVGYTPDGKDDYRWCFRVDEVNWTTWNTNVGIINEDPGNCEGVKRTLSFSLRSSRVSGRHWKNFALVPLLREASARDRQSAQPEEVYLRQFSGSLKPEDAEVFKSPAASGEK

TRPV4 = TRPV4 (Homo sapiens, UniProt Q9HBA0); details: cited from earlier work
Sequence of TRPV4 (Q9HBA0 whole entry, species assumed): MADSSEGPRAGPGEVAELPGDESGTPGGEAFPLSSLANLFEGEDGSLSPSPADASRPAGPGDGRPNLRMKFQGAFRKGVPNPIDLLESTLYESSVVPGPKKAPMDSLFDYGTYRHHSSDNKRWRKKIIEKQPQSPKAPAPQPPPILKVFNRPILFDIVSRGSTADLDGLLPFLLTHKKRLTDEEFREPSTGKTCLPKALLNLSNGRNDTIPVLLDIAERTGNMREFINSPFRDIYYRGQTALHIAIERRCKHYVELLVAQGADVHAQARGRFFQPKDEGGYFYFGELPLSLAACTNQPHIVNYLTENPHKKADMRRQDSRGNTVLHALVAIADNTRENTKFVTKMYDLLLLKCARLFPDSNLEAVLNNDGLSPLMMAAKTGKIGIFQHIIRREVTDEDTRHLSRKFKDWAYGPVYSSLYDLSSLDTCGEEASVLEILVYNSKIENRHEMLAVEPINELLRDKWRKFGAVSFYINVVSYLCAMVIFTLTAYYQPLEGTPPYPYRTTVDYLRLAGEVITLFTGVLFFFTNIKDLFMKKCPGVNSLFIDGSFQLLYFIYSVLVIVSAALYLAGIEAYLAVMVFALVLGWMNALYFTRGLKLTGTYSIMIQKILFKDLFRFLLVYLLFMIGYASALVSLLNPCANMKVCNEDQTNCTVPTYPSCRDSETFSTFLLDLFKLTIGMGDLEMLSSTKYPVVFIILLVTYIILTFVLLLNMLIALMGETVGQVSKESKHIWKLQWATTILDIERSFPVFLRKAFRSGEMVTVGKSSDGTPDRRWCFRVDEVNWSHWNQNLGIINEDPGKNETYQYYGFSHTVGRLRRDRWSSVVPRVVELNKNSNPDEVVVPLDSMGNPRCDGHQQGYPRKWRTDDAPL

HEK293 cell = details: cited from earlier work
TRAPA1 = TRAPA1 (Homo sapiens, UniProt O75762); details: read-out: IC50, TRPA1 antagonist; cited from earlier work
Sequence of TRAPA1 (O75762 whole entry): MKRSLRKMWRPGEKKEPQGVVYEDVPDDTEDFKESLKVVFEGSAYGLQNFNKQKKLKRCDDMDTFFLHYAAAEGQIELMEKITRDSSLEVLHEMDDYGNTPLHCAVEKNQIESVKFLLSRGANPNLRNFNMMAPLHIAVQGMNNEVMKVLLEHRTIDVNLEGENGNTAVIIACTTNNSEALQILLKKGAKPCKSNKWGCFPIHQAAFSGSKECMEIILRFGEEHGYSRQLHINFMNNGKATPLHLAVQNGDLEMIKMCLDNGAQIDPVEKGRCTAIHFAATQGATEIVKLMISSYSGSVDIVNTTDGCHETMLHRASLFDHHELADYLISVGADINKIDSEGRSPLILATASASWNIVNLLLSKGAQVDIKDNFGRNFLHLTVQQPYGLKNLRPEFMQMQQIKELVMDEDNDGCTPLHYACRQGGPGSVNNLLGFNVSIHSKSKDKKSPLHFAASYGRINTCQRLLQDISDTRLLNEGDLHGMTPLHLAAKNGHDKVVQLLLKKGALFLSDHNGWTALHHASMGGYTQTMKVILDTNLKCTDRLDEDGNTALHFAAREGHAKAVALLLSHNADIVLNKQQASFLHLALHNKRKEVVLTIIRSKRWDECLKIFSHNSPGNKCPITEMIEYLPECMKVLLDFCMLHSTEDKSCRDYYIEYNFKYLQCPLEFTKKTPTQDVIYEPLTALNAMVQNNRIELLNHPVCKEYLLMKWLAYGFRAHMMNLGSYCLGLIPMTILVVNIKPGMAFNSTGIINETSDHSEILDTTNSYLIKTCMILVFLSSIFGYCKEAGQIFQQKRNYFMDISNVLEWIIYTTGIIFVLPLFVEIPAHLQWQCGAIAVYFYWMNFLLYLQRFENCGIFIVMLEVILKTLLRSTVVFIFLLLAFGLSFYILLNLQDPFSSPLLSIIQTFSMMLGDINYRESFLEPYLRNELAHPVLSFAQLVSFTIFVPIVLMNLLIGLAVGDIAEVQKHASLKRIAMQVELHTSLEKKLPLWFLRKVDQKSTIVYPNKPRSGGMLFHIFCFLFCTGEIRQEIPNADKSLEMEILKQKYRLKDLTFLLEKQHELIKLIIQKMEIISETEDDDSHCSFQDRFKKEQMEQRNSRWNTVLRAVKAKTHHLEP

CB2 receptor = CB2 receptor (Homo sapiens, UniProt P34972); details: unit inferred; read-out: Ki, CB2 receptor binding; cited from earlier work
Sequence of CB2 receptor (P34972 whole entry): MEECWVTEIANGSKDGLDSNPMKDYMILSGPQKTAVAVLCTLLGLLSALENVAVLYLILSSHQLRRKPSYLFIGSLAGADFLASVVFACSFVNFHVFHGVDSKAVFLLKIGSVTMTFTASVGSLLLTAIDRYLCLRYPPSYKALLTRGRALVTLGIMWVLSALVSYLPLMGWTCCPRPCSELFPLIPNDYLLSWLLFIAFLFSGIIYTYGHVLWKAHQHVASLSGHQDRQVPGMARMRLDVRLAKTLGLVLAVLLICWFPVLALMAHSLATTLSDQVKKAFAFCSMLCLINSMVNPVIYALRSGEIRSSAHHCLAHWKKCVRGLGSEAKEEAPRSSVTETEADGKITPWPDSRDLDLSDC

mice [13] = details: intraperitoneal 5 and 10 mg/kg-d pretreatment; cited from earlier work
[14] = system: primary human bronchial epithelial cells; details: pretreatment; cited from earlier work
COPD patients = details: orally 600 mg/day, cited from earlier work
mice [15] = details: inhalation; cited from earlier work
H5N1 influenza A virus = details: 5 mM (816 mg/L) to 15 mM (2,448 mg/L), 24 hrs post-infection; cited from earlier work
[16] = system: CdCl2 treated human lung cells; details: 2.5 mM; 75 μM CdCl2; cited from earlier work
[17] = 2 mL/dose 4 times per day of Table A2 composition
[18] = Table A2 Preferred Base Viral Nebulizer Liquid, single 2 mL dose, 25 mL ELF, 100 percent retained
[19] = Table A3 Preferred Viral Respiratory Challenged Nebulizer Liquid, single 2 mL dose, 25 mL ELF, 100 percent retained
[20] = Table A4 Preferred Bacterial Pneumonia Nebulizer Liquid, single 2 mL dose, 25 mL ELF, 100 percent retained
[21] = Table A6 Preferred Base Nebulizer Liquid with Amino Acids, single 2 mL dose, 25 mL ELF, 100 percent retained

Sequence of hTRPA1 (O75762 whole entry): as the sequence (O75762 whole entry) above

N[C@@H](CCC(=O)N[C@@H](CS)C(=O)NCC(=O)O)C(=O)O [glutathione, γ-L-glutamyl-L-cysteinyl-glycine]
cigarette smoke extract-mediated IL-8 release (human MonoMac6 cells): significantly inhibited | LD50 ([1]; in vivo): 5000 mg/kg | LD50 ([1]; oral, mouse): 5,000 mg/kg | change from baseline FEV1 (asthma patients): −19% | change from baseline total pulmonary resistance (asthma patients): +61% | adverse effects of aerosol administration [2]: no adverse effects | period epithelial lung fluid glutathione remained elevated [2]: 2 h | estimated concentration in the epithelial lining fluid of the lungs (human): 889 µg/mL

O=C1CC2CC[C@H]1C2 [norcamphor]
activation of hTRPA1 (hTRPA1): did not activate

OC[C@@H](O)[C@H](O)[C@@H](O)CO [xylitol]
lung virus titers versus phosphate-buffered saline controls [3]: significantly greater reductions

Oc1ccc(C=Cc2cc(O)cc(O)c2)cc1 [Resveratrol]
cigarette smoke-induced lung inflammation (mice [4]): decreased

Cn1c(=O)c2c(CC(=O)Nc3nc(-c4ccc(F)c(C(F)(F)F)c4F)cs3)csc2n(C)c1=O [GRC 17536]
citric acid induced tussive response (guinea pigs [5]): inhibited

CCNC(=O)CC[C@H](N)C(=O)O [theanine, L-theanine]
growth of A549 cells (human lung cancer A549): significantly suppressed | Concentration in Epithelial Lining Fluid (human): 2670 µg/mL | growth of K562 cells (leukemia K562 cells): significantly suppressed

CCCCCCCCCCCC(=O)OCCOCCOCCOCCOCCOCCOCCOCCOCCOCCOCCOCCOCCOCCOCCOCCOCCOCCOCCOCCOCC(OCCOCCOCCOCCOCCOCCOCCOCCOCCOCCOCCOCCOCCOCCOCCOCCOCCOCCOCCOCCO)C1OCC(OCCOCCOCCOCCOCCOCCOCCOCCOCCOCCOCCOCCOCCOCCOCCOCCOCCOCCOCCOCCO)C1OCCOCCOCCOCCOCCOCCOCCOCCOCCOCCOCCOCCOCCOCCOCCOCCOCCOCCOCCOCCO (stereo not drawn) [Polysorbate 20]
LD50 ([1]; in vivo): 3,850 mg/kg | NOAEL (rats [6]): 2,500 mg/kg | factor NOAEL over daily inhaled dose (rats [7]; [17]): 2,980 times | NOAEL for a 62 kg adult human (rats [7]; extrapolated from rat NOAEL): 155,000 mg per day | Concentration in Epithelial Lining Fluid [18]: 530 µg/mL | Concentration in Epithelial Lining Fluid [19]: 1070 µg/mL | Concentration in Epithelial Lining Fluid [20]: 1330 µg/mL | Concentration in Epithelial Lining Fluid [21]: 1330 µg/mL | Concentration in Epithelial Lining Fluid (human): 1870 µg/mL

C/C1=C2/[N-][C@H]([C@H](CC(N)=O)[C@@]2(C)CCC(=O)NC[C@@H](C)OP(=O)([O-])O[C@H]2[C@@H](O)[C@@H](n3cnc4cc(C)c(C)cc43)O[C@@H]2CO)[C@]2(C)N=C(/C(C)=C3N=C(/C=C4N=C1[C@@H](CCC(N)=O)C\4(C)C)[C@@H](CCC(N)=O)[C@]\3(C)CC(N)=O)[C@@H](CCC(N)=O)[C@]2(C)CC(N)=O.[CH3-].[Co+3] [methylcobalamin]
NOAEL (mice [8]): 500 mg/kg | factor NOAEL over daily inhaled dose (mice [9]; [17]): 596,254 times | NOAEL for a 62 kg adult human (mice [9]; extrapolated from mouse NOAEL): 31,000 mg per day | Concentration in Epithelial Lining Fluid [18]: 0.5 µg/mL | Concentration in Epithelial Lining Fluid [19]: 1.1 µg/mL | Concentration in Epithelial Lining Fluid [20]: 1.1 µg/mL | Concentration in Epithelial Lining Fluid [21]: 1.1 µg/mL

epigallocatechin-3-gallate
bronchoalveolar lavage fluid IL-8 (guinea pigs [10]): significantly reduced | bronchoalveolar lavage fluid LTB4 (guinea pigs [10]): significantly reduced | increase of cellular uptake [11]: 2.5 times | cigarette smoke-induced oxidative stress and neutrophilic inflammation, airway mucus production and collagen deposition (rats [12]): ameliorated

C=C1CC/C=C(\C)CC[C@@H]2[C@@H]1CC2(C)C [B-Caryophyllene]
LD50 ([1]; oral, rat): >5,000 mg/kg | NOAEL (rats [6]; 90 d): >700 mg/kg

CC1(C)C2CCC1(C)C(O)C2 (stereo not drawn) [borneol]
activation of hTRPA1 (hTRPA1): did not activate | inhibition of hTRPA1 activation by menthol and AITC (hTRPA1): completely inhibited

COc1cc(O)cc(O)c1C(=O)/C=C/c1ccccc1 [cardamonin]
effect on TRPV1 (TRPV1): not affecting | effect on TRPV4 (TRPV4): not affecting | HEK293 cell viability (HEK293 cell): did not significantly reduce | IC50 (TRAPA1): 454 nM

CC1(C)[C@@H]2CC[C@@]1(C)[C@](C)(O)C2 [2-methylosoborneol, 2-methylisoborneol]
IC50 (hTRPA1; TRPA1 activated by 20 uM AITC, read-out: IC-50 concentration, inactivation of TRPA1 activation): 120000 nM | activation of hTRPA1 (hTRPA1): did not activate | inhibition of hTRPA1 activation by menthol and AITC (hTRPA1): completely inhibited

CCCCC/C=C\C/C=C\C/C=C\C/C=C\CCCC(=O)OC(CO)CO [Table 2-AG, 2-arachidonoyl-glycerol, reference compound]
Ki (CB2 receptor): 650 nM

COc1ccc2cc3[n+](cc2c1OC)CCc1cc2c(cc1-3)OCO2 [berberine]
cigarette smoke-induced airway inflammation and mucus production (mice [13]): inhibited

CC(C)c1ccc(NC(=O)Cn2cnc3c2c(=O)n(C)c(=O)n3C)cc1 [HC-030031]
tussive response induced by TRPA1 agonists (AITC, acrolein, crotonaldehyde, cinnamaldehyde) (guinea pigs [5]): attenuated | Ca^2+ influx induced by cigarette smoke extract [14]: similar

CC(=O)N[C@@H](CS)C(=O)O [N-acetyl cysteine]
LD50 ([1]; in vivo): 5050 mg/kg | LD50 ([1]; oral, rat): 5,050 mg/kg | sputum eosinophil cationic protein concentrations (COPD patients; COPD patients): reduced | lung lavage glutathione levels (COPD patients): increased | superoxide production by alveolar macrophages (COPD patients): reduced | Ca^2+ influx induced by cigarette smoke extract [14]: prevented | lung fibrosis induced by bleomycin (mice [15]): inhibited | H5N1-induced cytopathogenic effects, virus-induced apoptosis, and viral yields (H5N1 influenza A virus): reduces | estimated concentration in the epithelial lining fluid of the lungs (human): 889 µg/mL | morphology and viability of CdCl2 treated human lung cells [16]: restored the morphology and viability

CC12CCC(CC1=O)C2(C)C (stereo not drawn) [camphor]
activation of hTRPA1 (hTRPA1): did not activate

NCCS(=O)(=O)O [Taurine]
Concentration in Epithelial Lining Fluid (human): 2670 µg/mL

CC12CCC(C1)C(C)(C)C2O (stereo not drawn) [fenchyl alcohol]
activation of hTRPA1 (hTRPA1): did not activate | inhibition of hTRPA1 activation by menthol and AITC (hTRPA1): completely inhibited

CC1=CC(=O)C(C(C)C)=CC1=O [thymoquinone]
bronchoalveolar lavage fluid IL-8 (guinea pigs [10]): significantly decreased | bronchoalveolar lavage fluid LTB4 (guinea pigs [10]): did not significantly change

Reference: patent publication US20230355571A1, “METHOD FOR TREATING VIRAL AND BACTERIAL INFECTION THROUGH INHALATION THERAPY” (priority 2020, published 2023)
